Results on one compound are retold here after patent US20250034216A1, “STEREOSELECTIVE COVALENT LIGANDS FOR ONCOGENIC AND IMMUNOLOGICAL PROTEINS” (The Scripps Research Institute, priority 2021, published 2025).

The test system of one test is DDX42. Description: SEC-MS elution profile. The test is classed as cell-based, human. Conditions: 22Rv1 cells, 20 μM, 3 h. As to the method:
. Cell pellets were lysed by sonication (8 pulses, 40% power) in 600 μL ice-cold PBS supplemented with cOmplete protease inhibitors (1 tablet/10 mL of PBS), ultracentrifuged for 20 min at 100,000 g, then normalized to a standardized concentration (typically 1.5 to 2.5 mg/mL). Clarified lysate was injected into a Superdex 200 Increase 10/300 GL column attached to an AKTA pure FPLC system. Proteins were fractionated using an isocratic gradient (PBS) running at 0.5 mL/min into 5 fractions 2 mL wide, beginning at 8 mL and ending at 18 mL. Eluate was collected into 15 mL tubes containing 12 mL of acetone at 4C. After completion of one set of 5 fractions, the above protocol was repeated a second time for the remaining 5 fractions. Proteins were precipitated overnight at −20 C, then spun at 4500 g for 20 minutes, yielding a white protein pellet. […]
Data processing: Fractional distributions for each peptide-spectra match with a total TMT reporter ion intensity were calculated by dividing the reporter ion intensity for each TMT channel by the summed intensity across the 5 TMT channels corresponding to a single treatment condition (Equation 1). […] Euclidean distances (SE shift scores, Equation 2) were calculated using the average elution profile for each protein across replicates, combined by treatment condition and cell line. […]

Another test addresses T1, SF3B1 (~150 kDa protein) (Homo sapiens, UniProt O75533+Q7RTV0).
T1 construct: Cysteine engagement data from 22Rv1 cells treated; endogenous in cells; host or cells: 22Rv1
Description: Gel-based ABPP for SF3B1 cysteine engagement. The test is classed as binding. The note with it: 22Rv1 cells, 24 h pre-treatment (1 μM WX-02-23/WX-02-43, 10 nM pladienolide B). On the procedure: 22Rv1 cells were treated with indicated compounds for 24 h, chased with click probe for 1 h in situ, harvested and lysed in PBS with protease inhibitors (cOmplete), and then normalized to 2.0 mg/mL. Reagents for the CuAAC click reaction were pre-mixed prior to addition to the samples (3 μL of click reaction mix for 25 μL of lysate). After 1 hour of click labeling, 4×SDS running buffer was added to samples, which were then analyzed by SDS-PAGE.

T1 sequence (O75533 whole entry): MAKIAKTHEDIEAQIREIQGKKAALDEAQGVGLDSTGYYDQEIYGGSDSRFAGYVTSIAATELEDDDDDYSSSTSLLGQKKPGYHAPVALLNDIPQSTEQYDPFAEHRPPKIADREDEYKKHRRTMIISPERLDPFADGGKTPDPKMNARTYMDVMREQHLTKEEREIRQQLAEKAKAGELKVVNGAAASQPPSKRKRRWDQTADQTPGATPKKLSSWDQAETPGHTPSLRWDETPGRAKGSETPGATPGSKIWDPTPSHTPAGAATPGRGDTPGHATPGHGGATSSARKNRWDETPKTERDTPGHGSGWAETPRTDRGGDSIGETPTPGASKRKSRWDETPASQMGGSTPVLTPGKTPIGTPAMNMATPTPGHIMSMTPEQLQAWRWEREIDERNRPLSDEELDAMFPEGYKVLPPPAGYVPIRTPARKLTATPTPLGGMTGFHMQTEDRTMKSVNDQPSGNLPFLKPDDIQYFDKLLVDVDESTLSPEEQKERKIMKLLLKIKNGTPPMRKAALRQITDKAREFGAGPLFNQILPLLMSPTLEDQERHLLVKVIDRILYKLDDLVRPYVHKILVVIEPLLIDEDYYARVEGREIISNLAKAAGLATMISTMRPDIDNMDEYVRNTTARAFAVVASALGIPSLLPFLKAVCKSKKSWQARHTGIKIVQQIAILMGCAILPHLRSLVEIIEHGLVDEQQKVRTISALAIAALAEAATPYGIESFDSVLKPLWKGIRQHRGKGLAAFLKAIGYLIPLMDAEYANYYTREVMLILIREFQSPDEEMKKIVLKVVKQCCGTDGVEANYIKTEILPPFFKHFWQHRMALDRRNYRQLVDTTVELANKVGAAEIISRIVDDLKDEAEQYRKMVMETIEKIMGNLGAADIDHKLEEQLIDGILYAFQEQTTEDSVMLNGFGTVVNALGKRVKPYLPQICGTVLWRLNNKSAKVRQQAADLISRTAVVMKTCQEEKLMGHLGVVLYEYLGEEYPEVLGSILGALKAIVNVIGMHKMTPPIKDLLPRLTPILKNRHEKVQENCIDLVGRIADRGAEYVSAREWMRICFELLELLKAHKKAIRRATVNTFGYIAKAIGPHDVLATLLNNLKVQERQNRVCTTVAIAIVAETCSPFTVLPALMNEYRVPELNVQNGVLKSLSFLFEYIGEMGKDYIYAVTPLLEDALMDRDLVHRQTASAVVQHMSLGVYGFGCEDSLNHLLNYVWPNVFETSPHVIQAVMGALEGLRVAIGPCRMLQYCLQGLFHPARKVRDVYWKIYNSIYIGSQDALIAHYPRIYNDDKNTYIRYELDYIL
T1 sequence (Q7RTV0 whole entry): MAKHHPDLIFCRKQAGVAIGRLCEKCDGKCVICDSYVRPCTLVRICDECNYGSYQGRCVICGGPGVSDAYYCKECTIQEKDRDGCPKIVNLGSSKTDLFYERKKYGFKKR
T1 sequence (Q15393 whole entry partner): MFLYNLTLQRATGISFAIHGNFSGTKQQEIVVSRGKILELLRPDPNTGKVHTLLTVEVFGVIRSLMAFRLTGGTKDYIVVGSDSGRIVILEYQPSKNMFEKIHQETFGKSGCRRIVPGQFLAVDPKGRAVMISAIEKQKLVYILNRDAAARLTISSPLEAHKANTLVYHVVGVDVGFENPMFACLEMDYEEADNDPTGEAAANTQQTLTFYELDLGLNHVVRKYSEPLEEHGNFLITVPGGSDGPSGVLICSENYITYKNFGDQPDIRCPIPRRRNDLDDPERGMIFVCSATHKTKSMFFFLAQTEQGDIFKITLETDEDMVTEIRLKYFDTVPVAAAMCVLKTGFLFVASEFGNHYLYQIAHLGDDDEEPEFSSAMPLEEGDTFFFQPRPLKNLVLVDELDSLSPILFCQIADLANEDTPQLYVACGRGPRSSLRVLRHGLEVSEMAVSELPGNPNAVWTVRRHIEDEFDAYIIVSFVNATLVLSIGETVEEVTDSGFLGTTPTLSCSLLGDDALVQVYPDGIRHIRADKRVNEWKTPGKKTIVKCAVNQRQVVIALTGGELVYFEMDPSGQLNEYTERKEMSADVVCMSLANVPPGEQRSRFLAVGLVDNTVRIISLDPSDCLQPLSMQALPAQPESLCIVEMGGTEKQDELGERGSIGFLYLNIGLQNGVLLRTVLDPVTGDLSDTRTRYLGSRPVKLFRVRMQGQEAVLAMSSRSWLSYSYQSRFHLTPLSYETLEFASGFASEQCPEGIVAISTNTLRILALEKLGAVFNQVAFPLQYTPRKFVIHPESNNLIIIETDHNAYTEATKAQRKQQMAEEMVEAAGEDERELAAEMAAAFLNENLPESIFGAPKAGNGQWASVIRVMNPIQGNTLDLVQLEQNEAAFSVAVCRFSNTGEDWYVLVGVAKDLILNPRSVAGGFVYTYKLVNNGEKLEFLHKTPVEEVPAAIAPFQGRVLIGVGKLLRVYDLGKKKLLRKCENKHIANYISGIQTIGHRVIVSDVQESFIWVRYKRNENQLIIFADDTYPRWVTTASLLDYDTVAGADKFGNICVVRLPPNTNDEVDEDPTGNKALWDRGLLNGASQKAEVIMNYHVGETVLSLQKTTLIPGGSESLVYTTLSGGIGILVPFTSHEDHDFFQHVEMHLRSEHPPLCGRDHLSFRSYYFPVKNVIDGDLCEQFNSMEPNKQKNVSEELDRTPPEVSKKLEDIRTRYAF
T1 sequence (Q9BWJ5 whole entry partner): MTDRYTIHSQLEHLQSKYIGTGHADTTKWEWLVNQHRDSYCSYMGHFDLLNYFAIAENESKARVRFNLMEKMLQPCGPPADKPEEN

Turning to `C=CC(=O)N1[C@H](c2ccc3c(c2)OCO3)c2[nH]c3ccccc3c2C[C@H]1C(=O)N1CCOCC1` [WX-02-23, 1-((1R,3S)-1-(benzo[d][1,3]dioxol-S-yl)-3-(morpholine-4-carbonyl)-1,3,4,9-tetrahydro-2H-pyrido [3,4-b]indol-2-yl)prop-2-en-1-one], in the test with DDX42, the “SEC migration shift of DDX42” value is recorded as “stereoselectively caused this same size shift”. The “blockade of WX-01-10 labeling of the 150 kDa protein” value at SF3B1 (~150 kDa protein) is “blocked”.
